Experimental findings from patent US11976098B2, “Cooked millet prolamin peptide for inhibiting alpha-amylase and alpha-glucosidase” (China Agricultural University, priority 2022, dated 2024) are described below.

The test relates to α-glucosidase. In words: In vitro α-glucosidase inhibitory activity (PNPG, 405 nm). The format is biochemical. Particulars: sample 0.5%, 37° C., pH 6.8. The method, then:
The method for determining α-glucosidase activity is as follows: First, the solution of substrate 4-Nitrophenyl […] (PNPG) with a concentration of 1.505 mg/mL (5 mmol/L of PNPG dissolved in 0.1 mol/L phosphate buffer with a pH of 6.8) was prepared, a Na2CO3 solution with a concentration of 0.2 mol/L was prepared, and α-glucosidase solution (0.8 U/ml of α-glucosidase dissolved in 0.1 mol/L phosphate buffer with a pH of 6.8) was prepared. After the solutions were prepared, the following two groups were set for determination: [table] After preparing according to the above table, the resulting solution was shaken in a water bath at 37° C. for 10 min, followed by adding 100 μL of enzyme solution and continuing to shake in the water bath at 37° C. for 10 min. Finally, 50 μL of Na2CO3 solution was added, and the absorbance was measured at 405 nm. The formula for calculating the α-glucosidase inhibition rate is as follows: [formula]
Turning to “QQLRPF (The sequence is synthetized) [SEQ ID NO: 1, small peptide screened from cooked millet prolamin]”, the α-glucosidase inhibition rate is listed as 32.67%. With “KTGSGAEGMHGGK (The sequence is synthetized) [SEQ ID NO: 5, small peptide screened from cooked millet prolamin]” the figure was 15.64%; with “KAHAALGAK (The sequence is synthetized) [SEQ ID NO: 6, small peptide screened from cooked millet prolamin]”, 13.77%; with “QQQQLLR (The sequence is synthetized) [SEQ ID NO: 4, small peptide screened from cooked millet prolamin]”, 15.94%.

On to “AGAGPQGRP (The sequence is synthetized) [SEQ ID NO: 2, small peptide screened from cooked millet prolamin]”, for which the α-glucosidase inhibition rate stood at 31.57%. With “FALQGAAFLGSA (The sequence is synthetized) [SEQ ID NO: 3, small peptide screened from cooked millet prolamin]” the figure was 17.67%.
